# Reference: patent publication US20260224538A1 (Purdue Research Foundation, priority 2023, published 2026)
# What was measured:
# Aβ1-42 = biological target: T1, Aβ1-42 (Homo sapiens, UniProt P05067); assay: ThT fluorescence assay of Aβ1-42 fibril formation; format: biochemical; conditions: screen on prone-to-aggregate proteins (FIG. 2A, FIG. 4A); Aβ 7 μM
# T1 construct: α-syn, Aβ1-40, Aβ1-42 were procured from rPeptide; purchased rPeptide
# Protocol: (§1) Thioflavin-T (ThT) fluorescence assays. Thioflavin-T (ThT) fluorescence assays were used to monitor fibril formation of recombinant Ap (fragments 1-40 and 1-42), recombinant α-syn, recombinant tau isoform 2N4R, synthetic IAPP, and synthetic TTR peptides treated with BTA and its derivatives. The IAPP ThT assay was performed in 10 mM PBS (pH 7.4) at a final concentration of 10 μM for both IAPP and ThT as published previously. Aβ fragments 1-40 and 1-42 were tested at 7 μM in 10 mM of PBS using ThT at a final concentration of 20 μM. Kinetics of α-syn fibrillization were performed as published previously.^36-37 TTR fragment kinetics of fibril formation were assessed at 10 μM in 100 mM sodium acetate buffer supplemented with 100 mM KCl and 1 mM ethylenediaminetetraacetic acid (EDTA) (pH 4) with 20 μM ThT. The fluorescence emission experiments were performed with the excitation and emission wavelengths set at 440 and 485 nm, respectively, with a Synergy HT multi-mode microplate reader (BioTek, Winooski, VT). Samples were measured in three replicates, and the experiments were repeated three times using at least two different stock solutions. For each time point, arbitrary units of fluorescence were calculated from the mean values normalized against the maximum value in each completed assay. The lag time for each condition was calculated as previously described. All results contained in histograms were presented as mean±SEM. Data were analyzed by the one-way analysis of variance with Dunnett's multiple comparisons between controls and compounds. Differences were considered statistically significant at p<0.05.
# tau isoform 2N4R [1] = biological target: T2, tau isoform 2N4R (Homo sapiens, UniProt P10636); assay: PICUP, tau isoform 2N4R oligomerization; format: biochemical; conditions: compound 50 μM
# T2 construct: made in house; host or cells: E. coli BL21(DE3)
# Protocol: (§2) The bacterial expression plasmid consisting of the vector pRK172 carrying a cDNA encoding the human Tau 2N4R isoform was obtained from Dr. David Eliezer (Weill Cornell Medicine, New York, NJ). For protein expression, E. coli BL21(DE3) cells were transformed with the plasmid and grown in LB media supplemented with ampicillin (100 μg/mL). Protein over-expression was induced by the addition of 1 mM IPTG for 4 hours at 37° C., and cells were pelleted by centrifugation at 6,000 g for 15 minutes at 4° C. The cells were resuspended in lysis buffer (20 mM MES, 400 mM NaCl, 0.2 mM MgCl2, 1 mM EGTA, protease inhibitor cocktail (P8340, Sigma Aldrich), 0.25 mg/mL lysozyme, and 1 μg/mL DNase 1, pH 6.8) and lysed by a French press cell disruptor at 4° C., after which the lysate was boiled for 20 minutes. Denatured proteins were pelleted by centrifugation at 30,000 g for 30 minutes at 4° C., and the supernatant was dialyzed overnight against cation exchange buffer (20 mM MES, 50 mM NaCl, 1 mM MgCl2, 1 mM EGTA, 2 mM DTT, 0.1 mM PMSF, pH 6.8). The dialysate was loaded onto a HiPrep SP HP column, and proteins were eluted with a linear gradient ranging from 50 mM to 1 M NaCl. Fractions containing tau isoform 2N4R were pooled, and the resulting protein solution was dialyzed against PBS (pH 7.4) and stored at −80° C.
# (§3) Photo-induced Cross-linking of Unmodified Proteins (PICUP) Assay. To induce oligomerization by cross-linking, α-syn (from Rpeptide, LLC) and tau isoform 2N4R were diluted in 10 mM phosphate buffer (pH 7.4) to reach a final concentration of 10 μM. Different compounds were added to the protein solution at a final concentration of 50 μM, resulting in a molar ratio of 1:5. To confirm the gradual effect of the compounds on the inhibition of α-syn oligomerization, the compounds were tested at final concentrations of 3.125, 6.25, 12.5, 25, and 50 μM. The controls consisted of samples without light exposition, without Ru(bpy) or ammonium persulfate, and without compound (i.e., 0.125% DMSO). The cross-linking reaction was initiated by the addition of 2 μL of Ru(bpy) (300 μM final concentration) and 2 μL ammonium persulfate (6 mM final concentration). Samples were irradiated immediately. Light exposure was of a one-second duration for α-syn and a three-second duration for tau isoform 2N4R, with a 53 W (120 V) incandescent lamp installed in a homemade dark-box. Each tube contained a final volume of 20 μL. After irradiation, 8.3 μL of Laemmli loading buffer containing 15% β-mercaptoethanol were immediately added to the solution, followed by incubation at 95° C. for 10 minutes. The cross-linked samples were separated on a 16% SDS-PAGE gel and visualized by Coomassie blue staining.
# IAPP = biological target: T3, IAPP (Homo sapiens, UniProt P10997); assay: TEM of IAPP fibrils; format: biochemical; conditions: compound 100 μM, IAPP 10 μM, PBS
# T3 construct: Human islet amyloid polypeptide (IAPP) was procured from AnaSpec; purchased AnaSpec; host or cells: synthetic peptide
# T3 sequence (P10997 34-70 limits assumed): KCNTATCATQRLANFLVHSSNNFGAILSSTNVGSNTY
# Protocol: (§4) Transmission electron microscopy (TEM). After performing analysis with ThT fluorescence assay, TEM was utilized to detect fibril formation. A volume of 10 μL was applied to a 400-mesh Formvar-carbon-coated copper grid (Electron Microscopy Sciences, Hatfield, PA). The grids were incubated for 1 minute and washed three times with distilled water. They were carefully air-dried and incubated for 1 minute in a fresh solution of 1% uranyl acetate. Samples were air-dried and observed using a transmission microscope. Visualization of the grids was performed with TEM (JEOL 1400 Flash, Japan). Acquisition of pictures was performed with settings of accelerating voltage of 100 kV and magnification of 25 k and/or 40 k.
# α-syn [2] = biological target: T4, α-syn (Homo sapiens, UniProt P37840); assay: Photo-induced cross-linking of unmodified proteins (PICUP), α-syn oligomerization; format: biochemical; conditions: compound 50 μM, molar ratio 1:5 (protein:compound)
# T4 construct: purchased rPeptide
# Protocol: as §3
# TTR101-125 = biological target: T5, TTR101-125 (Homo sapiens, UniProt P02766); assay: ThT fluorescence assay of TTR101-125 fibril formation; format: biochemical
# T5 construct: TTR fragments 1-25, 26-50, 51-75, 76-100, 81-105, 101-125, and 101-125 were obtained from GenScript; purchased GenScript; host or cells: synthetic peptide
# Protocol: as §1
# TTR81-127 = biological target: T6, TTR81-127 (Homo sapiens, UniProt P02766); assay: TEM of TTR81-127 fibrils; format: biochemical; conditions: compound 100 μM, TTR81-127 10 μM, sodium acetate buffer pH 4
# T6 construct: TTR fragment 81-127 was obtained from AnaSpec; purchased AnaSpec; host or cells: synthetic peptide
# α-syn [3] = biological target: T4, α-syn; assay: Transmission electron microscopy (TEM) of α-syn fibrils; format: biochemical; conditions: compound 100 μM
# Protocol: as §4
# [4] = biological target: T7, transthyretin fragment peptide (TTR81-127) (Homo sapiens, UniProt P02766); assay: ThT fluorescence assay of TTR81-127 fibril formation; format: biochemical; conditions: for remaining activity at 100 µM: compounds at 100 μM, TTR81-127 10 μM, control 0.25% DMSO, read-out: ThT TTR81-127 (%), maximum thioflavin T (ThT) intensity in percentage
# T7 construct: TTR fragment 81-127 was obtained from AnaSpec; purchased AnaSpec; host or cells: synthetic peptide
# Protocol: as §1
# [5] = system: M17D neuroblastoma cells that express inclusion-prone αS-3K::YFP; assay: α-Syn inclusion-forming neuroblastoma cell experiment; format: cell-based; conditions: 40 μM; t=96 hours
# Protocol: α-Syn (or αS) inclusion-forming neuroblastoma cell experiment. Dox-inducible neuroblastoma cells M17D-TR/αS-3K::YFP have been used previously. 96-well plates were used with a cellular density of 30,000 cells per well. Compounds were added […], and αS-3K::YFP transgene expression was induced […]. Induction was done by adding 1 μg per mL (final concentration) dox to culture media. Cells were incubated in the Incucyte Zoom 2000 platform (Essen Biosciences), and images (green, bright field) were taken continuously. Endpoint analysis of inclusion formation or growth was performed 48 hours after induction (96 hours after plating). The Incucyte processing definition ‘Inclusions’ was created as follows: Parameters, Fixed Threshold, Threshold (GCU) 50; Edge Split On, Edge Sensitivity 100; Cleanup, Hole Fill (μm^2): 10, Adjust Size (pixels): 0; Filters, Area (μm^2): max 50, Mean Intensity: min 60, Integrated Intensity: min 2000. Cell confluence was measured by the processing definition ‘Cells’: Parameters, Segmentation Adjustment 0.7; Cleanup, all parameters set to 0; Filters, Area (μm^2): min 345.00. As described previously for the evaluation of protein expression by SDS-PAGE and Western Blotting in the LiCor system, αS-specific monoclonal antibody 4B12 (Thermofisher, Waltham, MA; 1:1000) and a polyclonal antibody to GAPDH (Sigma-Aldrich, St. Louis, MO, G9545; 1:5000) were used.
# α-synuclein (α-syn) = biological target: T8, α-synuclein (α-syn) (Homo sapiens, UniProt P37840); assay: Thioflavin-T (ThT) fluorescence assay of α-syn fibril formation; format: biochemical; conditions: for remaining activity at 100 µM: compounds at 100 μM, α-syn 6.25 μM, control 0.25% DMSO, read-out: ThT a-Syn (%), maximum thioflavin T (ThT) intensity in percentage
# T8 construct: purchased rPeptide
# Protocol: as §1
# (§5) Compounds with the highest anti-fibrillary activity were tested at 3.125, 6.25, 12.5, 25, 50, and 100 μM to obtain dose-response curves with prepared α-syn and 2N4R tau at 6.25 μM and 6 μM, respectively. Compounds were tested with α-syn using a previously published procedure. Concerning the tau (isoform 2N4R) kinetics of fibril formation, measurements of ThT fluorescence were performed with a solution of the protein diluted to a final concentration of 6 μM in PBS (pH 7.4) supplemented with 1.5 μM heparin, 20 μM ThT, 2.5 mM DTT, and 100 μM compound. Aliquots of the diluted protein solution (100 μL each) were pipetted into the wells of a 96-well plate, and a Teflon ball was added to each well. The plate was incubated at 37° C. with constant shaking at 1,000 rpm in a Tecan Spark plate reader. ThT fluorescence was measured every 15 minutes with excitation and emission wavelengths of 440 nm and 480 nm, and the data were plotted using GraphPad Prism.
# Aβ1-40 = biological target: T9, Aβ1-40 (Homo sapiens, UniProt P05067); assay: ThT fluorescence assay of Aβ1-40 fibril formation; format: biochemical; conditions: screen on prone-to-aggregate proteins (FIG. 4A); Aβ 7 μM
# T9 construct: α-syn, Aβ1-40, Aβ1-42 were procured from rPeptide; purchased rPeptide
# Protocol: as §1, with “All results contained in histograms were presented as mean±SEM. Data were analyzed by the one-way analysis of variance with Dunnett's multiple comparisons between controls and compounds. Differences were considered statistically significant at p<0.05.” left out
# [6] = biological target: T10, islet amyloid polypeptide (IAPP) (Homo sapiens, UniProt P10997); assay: ThT fluorescence assay of IAPP fibril formation; format: biochemical; conditions: screen on prone-to-aggregate proteins (FIG. 2A, FIG. 4A); IAPP 10 μM
# T10 construct: Human islet amyloid polypeptide (IAPP) was procured from AnaSpec; purchased AnaSpec; host or cells: synthetic peptide
# T10 sequence (P10997 34-70 limits assumed): T3 sequence (P10997 34-70 limits assumed)
# Protocol: as §1, with “All results contained in histograms were presented as mean±SEM. Data were analyzed by the one-way analysis of variance with Dunnett's multiple comparisons between controls and compounds. Differences were considered statistically significant at p<0.05.” left out
# α-syn [7] = biological target: T4, α-syn; assay: Photo-induced cross-linking of unmodified proteins (PICUP), α-syn oligomerization; format: biochemical; conditions: compound 200 μM
# tau isoform 2N4R [8] = biological target: T2, tau isoform 2N4R; assay: ThT kinetics of tau isoform 2N4R fibril formation; format: biochemical; conditions: tau 6 μM, compound 100 μM
# Protocol: as §2, §5
# [9] = compound 100 μM, molar ratio 1:10
# [10] = screen on prone-to-aggregate proteins (FIG. 2A, FIG. 4A)
# T2 sequence (P10636 1-441 isoform P10636-8): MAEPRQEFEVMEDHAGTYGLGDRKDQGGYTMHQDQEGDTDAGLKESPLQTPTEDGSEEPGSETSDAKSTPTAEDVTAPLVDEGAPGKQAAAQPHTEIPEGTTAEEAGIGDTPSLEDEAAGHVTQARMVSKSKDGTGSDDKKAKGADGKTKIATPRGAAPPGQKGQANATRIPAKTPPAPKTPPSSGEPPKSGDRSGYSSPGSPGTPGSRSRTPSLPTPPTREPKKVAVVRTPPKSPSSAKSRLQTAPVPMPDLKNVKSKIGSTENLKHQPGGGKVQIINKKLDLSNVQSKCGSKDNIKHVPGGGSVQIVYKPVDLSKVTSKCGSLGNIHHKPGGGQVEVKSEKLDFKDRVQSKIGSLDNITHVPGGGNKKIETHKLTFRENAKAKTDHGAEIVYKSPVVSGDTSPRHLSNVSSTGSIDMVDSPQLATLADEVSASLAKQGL
# T1 sequence (P05067 672-713 limits assumed): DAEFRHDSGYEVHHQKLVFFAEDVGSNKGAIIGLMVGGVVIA
# T9 sequence (P05067 672-711 limits assumed): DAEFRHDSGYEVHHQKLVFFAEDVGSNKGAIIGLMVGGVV
structure (smiles),measurement,setting,value
"Nc1ccc(-c2nc3ccccc3s2)cc1 [BTA, 4-(2-benzothiazolyl)aniline, reference compound]","thioflavin T fluorescence intensity, Aβ1-42",Aβ1-42,22.59±0.71%
same,tau isoform 2N4R oligomer formation (PICUP),tau isoform 2N4R [1],not successful in preventing oligomerization
same,IAPP fibrils by TEM,IAPP,no such branching was observed
same,α-syn oligomer formation (PICUP),α-syn [2],not successful in preventing oligomerization
same,TTR101-125 fibril formation (ThT),"TTR101-125; compound 25 μM, molar ratio 1:2.5",continued to reduce TTR101-125 fibrils
same,TTR101-125 fibril formation (ThT),TTR101-125; [9],reduced fibril formation
same,TTR81-127 fibrils by TEM,TTR81-127,reduced fibril formation
same,α-syn fibrils by TEM,α-syn [3],no such branching was observed
same,TTR81-127 fibril formation (ThT),[4]; [9],reduced fibril formation
same,cell confluence,[5],reduction in confluence
same,number of αS-3K::YFP inclusions,[5],did not affect the number of inclusions
"Clc1nc(Cl)nc(Nc2ccc(-c3nc4ccccc4s3)cc2)n1 [Compound 5, N-[4-(1,3-benzothiazol-2-yl)phenyl]-4,6-dichloro-1,3,5-triazin-2-amine]","thioflavin T fluorescence intensity, Aβ1-42",Aβ1-42,greater than 100%
same,tau isoform 2N4R oligomer formation (PICUP),tau isoform 2N4R [1],high molecular weight bands representing the oligomeric species
same,α-syn oligomer formation (PICUP),α-syn [2],high molecular weight bands representing the oligomeric species
same,"thioflavin T fluorescence intensity, TTR101-125",TTR101-125; screen on prone-to-aggregate proteins (FIG. 4A),greater than 100%
same,remaining activity at 100 µM,α-synuclein (α-syn),> 100%
same,"thioflavin T fluorescence intensity, α-syn",α-synuclein (α-syn); [10],greater than 100%
same,"thioflavin T fluorescence intensity, Aβ1-40",Aβ1-40,greater than 100%
same,"thioflavin T fluorescence intensity, IAPP",[6],greater than 100%
same,remaining activity at 100 µM,[4],> 100%
same,"thioflavin T fluorescence intensity, TTR81-127",[4]; [10],greater than 100%
"CCNC(=O)N(C(=O)NCC)c1nsc2ccc([N+](=O)[O-])cc12 [Compound 13, N-ethyl-1-[(ethylcarbamoyl)(5-nitro-1,2-benzothiazol-3-yl)amino]formamide]",α-syn oligomer formation (PICUP) at high concentration,α-syn [7],reduced substantially the oligomer formation
same,lag time of tau isoform 2N4R fibril formation,tau isoform 2N4R [8],delayed the lag time
same,production of tau isoform 2N4R fibrils (ThT kinetic aggregation curves),tau isoform 2N4R [8],reduced the production of tau isoform 2N4R fibrils
same,remaining activity at 100 µM,α-synuclein (α-syn),16.4 ± 7.8%
same,remaining activity at 100 µM,[4],73.4 ± 1.9%
